Results from US20090022664A1, “Radiolabelling via fluorination of aziridines” (priority 2007, published 2009).

Columns and labels:
[1] = Hydrolytic stability of the β-fluoro amines; assay type: physicochemical; details: under neutral and basic conditions (FIG. 2)
Text: The β-fluoro amino acid derivative 11ab-18F is quite stable under neutral and basic conditions (FIG. 2).

[2] = Plasma stability of the β-fluoro amines; assay type: in vitro ADME; details: in solution with Human Plasma; aliquots incubated for different time periods
Method: 675 μl EtOH were added to the reactive-vial and then 5 aliquots of 70 μl of the Plasma solution were incubated for different time periods.

Row | SMILES | Hydrolytic stability [1] | Plasma stability [2]
1 | CC(C)c1cc(C(C)C)c(S(=O)(=O)NC(C[18F])C(=O)NCc2ccccc2)c(C(C)C)c1 (stereo not drawn) [11ab-18F, 3-[^18F]Fluoro-N-benzyl-2-(2,4,6-triisopropylphenylsulphon-amido)-propanamide] | quite stable | 
2 | COc1ccc(S(=O)(=O)NC(C[18F])C(=O)NCc2ccccc2)cc1OC (stereo not drawn) [11ac-18F, 3-[^18F]Fluoro-N-benzyl-2-(3,4-dimethoxyphenylsulphon-amido)-propanamide] |  | stable
3 | CC(C)c1cc(C(C)C)c(S(=O)(=O)NC2CN(C(=O)CCC(=O)NCc3ccccc3)CC2[18F])c(C(C)C)c1 (stereo not drawn) [35aa-18F, N-Benzyl-4-[3-[^18F]fluoro-4-(2,4,6-triisopropyl-benzene-sulfonylamino)-pyrrolidin-1-yl]-4-oxo-butyramide] |  | stable
